Results on 31 compounds are retold here after patent US12509467B2 (Hoffmann-La Roche Inc., priority 2020, dated 2025).

The target of the first assay is T1, human cGAS (residues 161-522) (Homo sapiens, UniProt Q8N884).
T1 construct: Recombinantly expressed purified human cGAS (residues 161-522) was used at 25 nM; made in house
T1 sequence (Q8N884 161-522): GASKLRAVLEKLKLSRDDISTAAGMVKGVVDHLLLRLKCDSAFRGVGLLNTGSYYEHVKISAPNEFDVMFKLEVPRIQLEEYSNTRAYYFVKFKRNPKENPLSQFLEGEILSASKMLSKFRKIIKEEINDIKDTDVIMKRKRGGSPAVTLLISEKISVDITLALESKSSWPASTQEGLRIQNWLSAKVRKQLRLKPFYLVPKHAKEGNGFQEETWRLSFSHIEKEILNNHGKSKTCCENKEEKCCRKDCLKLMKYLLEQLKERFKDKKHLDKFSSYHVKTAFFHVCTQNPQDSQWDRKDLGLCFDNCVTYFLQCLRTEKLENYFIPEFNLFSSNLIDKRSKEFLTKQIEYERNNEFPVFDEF
Kind of assay: cGAS Activity Assay—Malachite Green. It counts as biochemical.
Settings: not given
The procedure:
Compounds were tested for cGAS inhibition in a coupled enzymatic assay based on Phosphate detection by Malachite Green. Final assay conditions were 20 mM TRIS pH 7.5 (Applichem), 5 mM MgCl2 (Sigma) and 0.01% BSA (Sigma) supplemented with 80 μM ATP (Sigma), 80 μM GTP (Sigma) and 100 nM Interferon Stimulating DNA (ISD) (Microsynth).
1 μL of DMSO dilution series was transferred to 32.3 μL reaction buffer, mixed by pipetting up/down, spun for 1 minute at 3000 rpm and was visually inspected for precipitation. 5 μL of 3-fold enzyme stock solution were transferred to an empty 384-well Black/Clear Flat Bottom Polystyrene NBS (Corning) rows 3-24. Rows 1-2 were filled with assay buffer. Plates were spun 10 seconds at 1000 rpm (164×g). 5 μL of compound intermediate dilution was added and mixed by pipetting up/down to rows 3-24. Rows 1-2 were filled with 3.1% DMSO assay buffer. Plates were spun 10 seconds at 1000 rpm (164×g). 5 μL 3-fold Nucleotide/DNA mix was added to all wells to start the reaction. Plates were spun 10 seconds at 1000 rpm (164×g) and incubated for 4 hour at room temperature (RT) in the dark. 5 μL 4 U/mL PPase (Sigma) were added to all wells. Plates spun 10 seconds at 1000 rpm (164×g). 10 μL BioMol green Solution (Enzo Life Sciences) was added to all wells. Plates spun 10 seconds at 1000 rpm (164×g) and incubated 30 minutes at RT in the dark. Absorbance data was collected 620 nm on an EnVision Multilable Reader (Perkin Elmer) and the following measurement settings were used: excitation filter photometric was 620 nm; excitation from the top; measurement height was 1 mm; number of flashes was 30; number of flashes integrated was 1.
All plates are checked for abnormalities and outliers in the Blank Control (no protein, row 1) and the Neutral Control (no compound, row 2) are excluded using the 3*SD rule.
Table 5 provides IC50 values (μM) for cGAS inhibition obtained for particular examples of the present invention as measured by the above-described assay.
For the compound `O=c1cc(CNc2ccccc2)[nH]c2nc(NCc3ccc(Cl)cc3Cl)nn12` [Example 79, 5-(Anilinomethyl)-2-[(2,4-dichlorophenyl)methylamino]-4H-[1,2,4]triazolo[1,5-a]pyrimidin-7-one], the IC50 was 4.61 µM.

For the compound `CCCc1cc(=O)n2nc(NCc3ccc(C(C)C)cc3)nc2[nH]1` [Example 55, 2-[(4-propan-2-ylphenyl)meth-ylamino]-5-propyl-4H-[1,2,4]-triazolo[1,5-a]pyrimidin-7-one], the IC50 stood at 1.59 µM.

`CCCc1cc(=O)n2nc(NCc3cc(-c4cccnc4)ccc3Cl)nc2[nH]1` [Example 21, 2-[[2-chloro-5-(3-pyridyl)phen-yl]-methylamino]-5-propyl-4H-[1,2,4]triazolo[1,5-a]pyrimidin-7-one] returned a concentration for half-maximal inhibition (IC50) of 0.744 µM.

Take `CC(Nc1nc2[nH]c(C(F)(F)F)cc(=O)n2n1)c1ccc(Cl)cc1Cl` (stereo not shown) [Example 77, 2-[1-(2,4-dichlorophenyl)ethyl-amino]-5-(trifluoromethyl)-4H-[1,2,4]triazolo[1,5-a]pyrimidin-7-one]: the IC50 stood at 8.41 µM.

In turn, `O=c1cc(CCc2ccccc2)[nH]c2nc(NCc3ccc(Cl)cc3Cl)nn12` [Example 72, 2-[(2,4-dichlorophenyl)meth-ylamino]-5-(2-phenylethyl)-4H-[1,2,4]triazolo[1,5-a]-pyrimidin-7-one] gave an IC50 of 2.11 µM.

Take `CCCc1cc(=O)n2nc(NCc3cc(-c4cn(C)cn4)ccc3Cl)nc2[nH]1` [Example 30, 2-[[2-chloro-5-(1-methylimid-azol-4-yl)phenyl]methylamino]-5-propyl-4H-[1,2,4]triazolo[1,5-a]pyrimidin-7-one]: inhibition was half-maximal at 0.444 µM (IC50).

In turn, `CC(C)c1ccc(CNc2nc3[nH]c(Cc4ccccc4)cc(=O)n3n2)cc1` [Example 73, 5-benzyl-2-[(4-isopropylphen-yl)methylamino]-4H-[1,2,4]-triazolo[1,5-a]pyrimidin-7-one] gave an IC50 of 2.7 µM.

As to `CCCc1cc(=O)n2nc(NCc3cc(-c4ccn(C)n4)ccc3Cl)nc2[nH]1` [Example 57, 2-[[2-chloro-5-(1-methylpyrazol-3-yl)phenyl]methylamino]-5-propyl-4H-[1,2,4]triazolo[1,5-a]pyrimidin-7-one], the IC50 was 0.533 µM.

The assay is the same for the next values; noted with them: cGAS inhibition; 25 nM cGAS, 80 μM ATP, 80 μM GTP, 100 nM ISD, 4 hour at RT, Malachite Green phosphate detection; read-out: IC50 cGAS.
In the case of `CCCc1cc(=O)n2nc(NCc3ccc(-c4ncccn4)cc3)nc2[nH]1` [Example 2, 5-propyl-2-[(4-pyrimidin-2-yl-phenyl)methylamino]-4H-[1,2,4]-triazolo[1,5-a]pyrimidin-7-one;], the IC50 is 4.38 µM.

Take `CCCc1cc(=O)n2nc(OCc3ccc(-c4ccccc4)cc3Cl)nc2[nH]1` [Example 92, 2-1(2-Chloro-4-phenyl-phenyl)methoxyl-5-propyl-4H-[1,2,4]triazolo[1,5-a]pyrimidin-7-one]: the IC50 was determined as 2.18 µM.

In the case of `CCCc1cc(=O)n2nc(NCc3cc(Nc4nccs4)ccc3Cl)nc2[nH]1` [Example 89, 2-[[2-chloro-5-(thiazol-2-ylamino)phenyl]methylamino]-5-propyl-4H-[1,2,4]triazolo[1,5-a]pyrimidin-7-one], the IC50 was determined as 0.492 µM.

As to `CCCc1cc(=O)n2nc(NCc3cc(NC(=O)c4ccon4)ncc3Cl)nc2[nH]1` [Example 90, N-[5-Chloro-4-[[(7-oxo-5-propyl-4H-[1,2,4]triazolo[1,5-a]pyrimidin-2-yl)amino]methyl]-2-pyridyl]isoxazole-3-carboxamide], the IC50 turned out to be 0.807 µM.

As to `O=c1cc(CC2CCC2)[nH]c2nc(NCc3ccc(-c4ccccc4)cc3)nn12` [Example 3, 5-(cyclobutylmethyl)-2-[(4-phen-ylphenyl)methylamino]-4H-[1,2,4]triazolo[1,5-a]pyrimidin-7-one], the IC50 amounted to 1.57 µM.

`CCCc1cc(=O)n2nc(NCc3cc(-c4cncnc4)ccc3Cl)nc2[nH]1` [Example 36, 2-[(2-chloro-5-pyrimidin-5-yl-phenyl)methylamino]-5-propyl-4H-[1,2,4]triazolo[1,5-a]-pyrimidin-7-one]: the IC50 came to 0.392 µM.

As to `CCCc1cc(=O)n2nc(NCc3cc(-c4ccccc4)ccc3Cl)nc2[nH]1` [Example 23, 2-[(2-chloro-5-phenylphenyl)-methylamino]-5-propyl-4H-[1,2,4]triazolo[1,5-a]pyrimidin-7-one], the 50% inhibitory concentration (IC50) turned out to be 2.44 µM.

Regarding `Cn1ccc(-c2ccc(CNc3nc4[nH]c(C(F)(F)F)cc(=O)n4n3)cc2)n1` [Example 18, 2-[[4-(1-methylpyrazol-3-yl)-phenyl]methylamino]-5-(trifluoromethyl)-4H-[1,2,4]-triazolo[1,5-a]pyrimidin-7-one], the concentration for half-maximal inhibition (IC50) was found to be 2.82 µM.

In the case of `CCCc1cc(=O)n2nc(NCc3ccc(-c4ccccc4)cc3F)nc2[nH]1` [Example 1, 2-[(2-Fluoro-4-phenyl-phenyl)methylamino]-5-propyl-4H-[1,2,4]triazolo[1,5-a]pyrimidin-7-one], the IC50 came to 0.744 µM.

As for `CCCc1cc(=O)n2nc(NCc3cc(-c4cnn(C)c4)ccc3Cl)nc2[nH]1` [Example 24, 2-[[2-chloro-5-(1-methylpyrazol-4-yl)phenyl]methylamino]-5-propyl-4H-[1,2,4]triazolo[1,5-a]pyrimidin-7-one], the half-inhibitory concentration (IC50) came to 0.401 µM.

Regarding `CCCc1cc(=O)n2nc(NCc3cnc(N4CCOCC4)cc3Cl)nc2[nH]1` [Example 99, 2-[(4-Chloro-6-morpholino-3-pyridyl)methylamino]-5-propyl-4H-[1,2,4]triazolo[1,5-a]pyrimidin-7-one], the concentration for half-maximal inhibition (IC50) was 2.19 µM.

Turning to `CCCc1cc(=O)n2nc(NCc3cc(-c4ncccn4)ccc3Cl)nc2[nH]1` [Example 43, 2-[(2-chloro-5-pyrimidin-2-yl-phenyl)methylamino]-5-propyl-4H-[1,2,4]triazolo[1,5-a]-pyrimidin-7-one], the concentration for half-maximal inhibition (IC50) stood at 0.326 µM.

As to `CCCc1cc(=O)n2nc(NCc3cc(N4CCN(C)CC4)ncc3Cl)nc2[nH]1` [Example 95, 2-[[5-chloro-2-(4-methyl-piperazin-1-yl)-4-pyridyl]-methylamino]-5-propyl-4H-[1,2,4]triazolo[1,5-a]pyrim-idin-7-one], the concentration for half-maximal inhibition (IC50) came to 6.67 µM.

Take `CCCc1cc(=O)n2nc(NCc3ccc(OC(C)C)cc3)nc2[nH]1` [Example 53, 2-[(4-propan-2-yloxyphenyl)-methylamino]-5-propyl-4H-[1,2,4]triazolo[1,5-a]pyrimidin-7-one]: the half-inhibitory concentration (IC50) stood at 2.66 µM.

Consider `CCCc1cc(=O)n2nc(NCc3ccc(-c4ccccc4)cc3)nc2[nH]1` [Example 67, 2-[(4-phenylphenyl)methyl-amino]-5-propyl-4H-[1,2,4]-triazolo[1,5-a]pyrimidin-7-one], for which the 50% inhibitory concentration (IC50) was 0.672 µM.

For `COCCCc1cc(=O)n2nc(NCc3cc(-c4ccn(C)n4)ccc3Cl)nc2[nH]1` [Example 48, 2-[[2-chloro-5-(1-methylpyrazol-3-yl)phenyl]methylamino]-5-(3-methoxypropyl)-4H-[1,2,4]-triazolo[1,5-a]pyrimidin-7-one], the half-maximal inhibitory concentration (IC50) stood at 0.603 µM.

With `CCCc1cc(=O)n2nc(NCc3cc(N4CCOCC4)ncc3Cl)nc2[nH]1` [Example 96, 2-[(5-Chloro-2-morpholino-4-pyridyl)methylamino]-5-propyl-4H-[1,2,4]triazolo[1,5-a]pyrimidin-7-one], the IC50 amounted to 1.16 µM.

Consider `CCCCc1cc(=O)n2nc(NCc3nc(N4CCOCC4)ncc3Cl)nc2[nH]1` [Example 98, 5-Butyl-2-[(5-chloro-2-morpholino-pyrimidin-4-yl)methylamino]-4H-[1,2,4]triazolo[1,5-a]pyrimidin-7-one], for which the IC50 is 0.435 µM.

In the case of `CCCc1cc(=O)n2nc(NCc3ccc(-n4cccn4)cc3)nc2[nH]1` [Example 5, 5-propyl-2-[(4-pyrazol-1-yl-phenyl)methylamino]-4H-[1,2,4]-triazolo[1,5-a]pyrimidin-7-one], the IC50 was 4.01 µM.

Regarding `CCCc1cc(=O)n2nc(NCc3ccc(OCC)cc3)nc2[nH]1` [Example 54, 2-[(4-ethoxyphenyl)methyl-amino]-5-propyl-4H-[1,2,4]-triazolo[1,5-a]pyrimidin-7-one], the IC50 amounted to 2.2 µM.

Consider `CCCc1cc(=O)n2nc(NCc3ccc(Cl)cc3C)nc2[nH]1` [Example 66, 2-[(4-chloro-2-methylphenyl)-methylamino]-5-propyl-4H-[1,2,4]triazolo[1,5-a]pyrimidin-7-one], for which the half-inhibitory concentration (IC50) is 9.28 µM.

Turning to `CCCc1cc(=O)n2nc(NCc3cc(-c4ccn(C)n4)ccn3)nc2[nH]1` [Example 82, 2-[[4-(1-methylpyrazol-3-yl)-2-pyridyl]methylamino]-5-propyl-4H-[1,2,4]triazolo-[1,5-a]pyrimidin-7-one], the 50% inhibitory concentration (IC50) turned out to be 1.49 µM.

With `Cc1cc(=O)n2nc(NCc3cc(-c4ccn(C)n4)ccc3Cl)nc2[nH]1` [Example 34, 2-[[2-chloro-5-(1-methylpyrazol-3-yl)phenyl]methylamino]-5-methyl-4H-[1,2,4]triazolo[1,5-a]-pyrimidin-7-one], the IC50 was 2.11 µM.

As a reminder, the IC50 is the concentration that gives 50% inhibition.
